The results in this text go back to patent US4431665A, “Acylated laidlomycin derivatives” (priority 1980, dated 1984).

Each structure is given as a SMILES string. Read-outs that look alike come from different tables or passages of the source.

In data set [1] the test system is rumen microorganisms (mixed microbial population of rumen contents). The data set can be described thus: Enhancement of intraruminal propionic acid production, batch culture fermentation of rumen contents. In kind it is cell-based, bovine (rumen-fistulated). To be noted: for % Propionic Acid: 9 h, 39° C. As for the experimental part: Enhancement of intraruminal propionic acid production is determined using a batch culture fermentation system. Rumen contents from a rumen-fistulated bovine are mixed with an equal amount of buffer which contains mineral, energy and nitrogen sources required for continued growth and metabolism of the mixed microbial population. Aliquots of this inoculum then are transferred to incubation vessels containing appropriate amounts of sodium laidlomycin (Na L.) (see Example 1A), and L. butyrate (L.C4) (prepared according to the procedure of Example 1A). After 9 hours of incubation at 39° C., concentrations of individual volatile fatty acids in each incubation vessel are determined by gas-liquid chromatography. The net production of each individual volatile fatty acid (acetic [AA], propionic [PA] and butyric [BA]) is calculated as the difference between the concentration after incubation and the concentration before incubation. The molar percentage of propionic acid produced is calculated from the following equation: [formula]
The comparative activities of sodium laidlomycin (Na L.) and the laidlomycin butyrate upon propionic acid and lactic acid production are set forth in Tables 1 and 2 where the concentration is in micrograms per ml (μg/ml).
(§1) The procedure of Example 2 was followed to compare laidlomycin (L.), sodium L. (Na L.), L.-propionate (L.C3), L. butyrate (L.C4), L. isobutyrate (L. isoC4), L. pentanoate (L.C5) and L. hexanoate (L.C6).
(§2) The procedure of Example 2 was followed to compare the activities of L. heptanoate (L. C7), L. octanoate (L. C8), L. decanoate (L. C10) and L. dodecanoate (L. C12) in increasing propionic acid production and inhibiting lactic acid production.
(§3) The procedure of Example 2 was followed to compare the activities of laidlomycin (L.) acetate (L. C2), L. pentanoate (L. C5), L. stearate (L. C18), L. cyclobutylcarboxylate, L. cyclopentylcarboxylate, L. cyclohexylcarboxylate and L. cyclopropylcarboxylate.

Data set [2] concerns rumen contents (lactic acid accumulation). The experiment in a line: Inhibition of lactic acid accumulation, second batch culture fermentation of rumen contents with glucose. It is filed as cell-based, bovine (rumen fistulated). As to conditions: for Lactic Acid Accumulation: Table 6, 0 μg/ml: 36.65. As for the experimental part:
Inhibition of lactic acid accumulation is determined using a second batch culture fermentation system. Rumen contents from a rumen fistulated bovine are mixed with an equal amount of buffer which contains a 150 mM concentration of glucose. Following 6 hours of incubation at 39° C., lactic acid produced in the fermentation is analyzed by a specific enzymatic assay. The concentration of lactic acid in the fermentation broth is quantified by the increase in absorbance of light at […] when nicotinamide adenine dinucleotide is reduced by lactic acid with the aid of lactate dehydrogenase. […]
as §1, §2, §3

A short description of data set [3]: Acute oral toxicity (mortality, LD50) in mice. As to conditions: mouse, in vivo, male Swiss-Webster mice, 21 days. In kind it is in vivo, mouse (Swiss-Webster). As for the experimental part:
(§4) Five groups of male, Swiss-Webster mice (Simonsen), each mouse weighing about 25 grams, were dosed orally with 0.25 ml of a solution of laidlomycin butyrate in sesame oil. A control group of six mice received only sesame oil. The mice were observed daily for mortality for 21 days. From this information the LD50 as calculated to be more than 200 mg/kg.

The next data set concerns male, Swiss-Webster mice. The experiment in a line: Acute oral toxicity (mortality, LD50) in mice. It is filed as in vivo, mouse (Swiss-Webster). As to conditions: sesame oil, 21 days. As for the experimental part:
as §4

Setting [4] is: Table 5, 1.25 μg/ml, 0 μg/ml: 35.5.
Setting [5] is: Table 5, 2.5 μg/ml, 0 μg/ml: 35.5.
Setting [6] is: Table 5, 5 μg/ml, 0 μg/ml: 35.5.
The mark [7] stands for this setting: Table 5, 10 μg/ml, 0 μg/ml: 35.5.
Where [8] appears, read: Table 5, 20 μg/ml, 0 μg/ml: 35.5.
The mark [9] stands for this setting: Table 5, .31 μg/ml, 0 μg/ml: 35.5.
The mark [10] stands for this setting: Table 5, .63 μg/ml, 0 μg/ml: 35.5.
The mark [11] stands for this setting: Table 3, 1.25 μg/ml, 0 μg/ml: 28.5.
Setting [12] is: Table 3, 5 μg/ml, 0 μg/ml: 28.5.
[13] abbreviates: Table 3, 20 μg/ml, 0 μg/ml: 28.5.
Setting [14] is: Table 3, .31 μg/ml, 0 μg/ml: 28.5.
[15] abbreviates: Bos taurus, 6 h, read-out: Accumulation of Lactic Acid - % of Control, Table 4, 1.25 μg/ml, 6 h, 39° C.
The mark [16] stands for this setting: Bos taurus, 6 h, read-out: Accumulation of Lactic Acid - % of Control, Table 4, 5 μg/ml, 6 h, 39° C.
The mark [17] stands for this setting: Bos taurus, 6 h, read-out: Accumulation of Lactic Acid - % of Control, Table 4, 20 μg/ml, 6 h, 39° C.
Setting [18] is: Bos taurus, 6 h, read-out: Accumulation of Lactic Acid - % of Control, Table 4, .31 μg/ml, 6 h, 39° C.
Where [19] appears, read: in words, compared with laidlomycin or its sodium salt.

Broadly, the LD50 is the dose at which mortality reaches 50%. High values mean lower toxicity, low ones greater toxicity.

In the case of `CCCCCCC(=O)OCC1(O)OC(C2CC(C)C(C3(C)CCC(C4(C)CCC5(CC(O)C(C)C(C(C)C(OC(=O)CC)C(C)C(=O)O)O5)O4)O3)O2)C(C)CC1C` (stereo not drawn) [L. C7, laidlomycin heptanoate], the “% Propionic Acid” value came to 46.2% in data set [1] (setting [4]); 46.9% in data set [1] (setting [5]); 48.4% in data set [1] (setting [6]); 48.1% in data set [1] (setting [7]); 47.2% in data set [1] (setting [8]); 41.4% in data set [1] (setting [9]). Besides, the “% Propionic Acid” value in data set [1] (setting [10]) came out at 45.3%. Also, the “Lactic Acid Accumulation” value is 1.90 µmol/mL in data set [2] (1.25 μg/ml, 6 h, 39° C.); 1.32 µmol/mL in data set [2] (2.5 μg/ml, 6 h, 39° C.); 1.16 µmol/mL in data set [2] (5 μg/ml, 6 h, 39° C.); 1.46 µmol/mL in data set [2] (10 μg/ml, 6 h, 39° C.); 1.94 µmol/mL in data set [2] (20 μg/ml, 6 h, 39° C.); 38.37 µmol/mL in data set [2] (.31 μg/ml, 6 h, 39° C.). The “Lactic Acid Accumulation” value in data set [2] (.63 μg/ml, 6 h, 39° C.) was found to be 14.12 µmol/mL.

`CCC(=O)OC(C(C)C(=O)O)C(C)C1OC2(CCC(C)(C3CCC(C)(C4OC(C5OC(O)(COC(=O)C(C)C)C(C)CC5C)CC4C)O3)O2)CC(O)C1C` (stereo not drawn) [L. iso C4, laidlomycin isobutyrate]: the “% Propionic Acid” value in data set [1] (setting [11]) came out at 39.6%; in data set [1] (setting [12]), 43.9%; in data set [1] (setting [13]), 47.5%; in data set [1] (setting [14]) it was 34.3%. Besides, in data set [2] (setting [15]), the activity at 1.25 µg/mL was 12%. Besides, the activity at 5 µg/mL in data set [2] (setting [16]) worked out at 13%. Also, the activity at 20 µg/mL in data set [2] (setting [17]) came to 16%. Further, the activity at 0.31 µg/mL in data set [2] (setting [18]) worked out at 37%.

As for `CCCCCCCC(=O)OCC1(O)OC(C2CC(C)C(C3(C)CCC(C4(C)CCC5(CC(O)C(C)C(C(C)C(OC(=O)CC)C(C)C(=O)O)O5)O4)O3)O2)C(C)CC1C` (stereo not drawn) [L. C8, laidlomycin octanoate], the “% Propionic Acid” value is given as 46.4% in data set [1] (setting [4]); 47.3% in data set [1] (setting [5]); 48.2% in data set [1] (setting [6]); 47.5% in data set [1] (setting [7]); 49.4% in data set [1] (setting [8]); 42.7% in data set [1] (setting [9]). Also, the “% Propionic Acid” value in data set [1] (setting [10]) was determined as 43.9%. Also, the “Lactic Acid Accumulation” value is 1.21 µmol/mL in data set [2] (1.25 μg/ml, 6 h, 39° C.); 1.31 µmol/mL in data set [2] (2.5 μg/ml, 6 h, 39° C.); 1.27 µmol/mL in data set [2] (5 μg/ml, 6 h, 39° C.); 1.39 µmol/mL in data set [2] (10 μg/ml, 6 h, 39° C.); 2.14 µmol/mL in data set [2] (20 μg/ml, 6 h, 39° C.); 41.96 µmol/mL in data set [2] (.31 μg/ml, 6 h, 39° C.). In data set [2] (.63 μg/ml, 6 h, 39° C.), the “Lactic Acid Accumulation” value is 9.41 µmol/mL.

As to `CCC(=O)OCC1(O)OC(C2CC(C)C(C3(C)CCC(C4(C)CCC5(CC(O)C(C)C(C(C)C(OC(=O)CC)C(C)C(=O)O)O5)O4)O3)O2)C(C)CC1C` (stereo not drawn) [L. C3, laidlomycin propionate], the “% Propionic Acid” value in data set [1] (setting [11]) came to 37.8%; in data set [1] (setting [12]), 41.9%; in data set [1] (setting [13]) it was 44.4%; in data set [1] (setting [14]), 32.9%. Further, the activity at 1.25 µg/mL in data set [2] (Bos taurus, Table 4, 1.25 μg/ml, 6 h, 39° C., read-out: Accumulation of Lactic Acid - % of Control) is 14%. Besides, the activity at 5 µg/mL in data set [2] (Bos taurus, Table 4, 5 μg/ml, 6 h, 39° C., read-out: Accumulation of Lactic Acid - % of Control) came to 13%. Moreover, the activity at 20 µg/mL in data set [2] (Bos taurus, Table 4, 20 μg/ml, 6 h, 39° C., read-out: Accumulation of Lactic Acid - % of Control) is 14%. In data set [2] (Bos taurus, Table 4, .31 μg/ml, 6 h, 39° C., read-out: Accumulation of Lactic Acid - % of Control), the activity at 0.31 µg/mL is 71%.

In the case of `CCCC(=O)OCC1(O)OC(C2CC(C)C(C3(C)CCC(C4(C)CCC5(CC(O)C(C)C(C(C)C(OC(=O)CC)C(C)C(=O)O)O5)O4)O3)O2)C(C)CC1C` (stereo not drawn) [L. C4, monobutyrate of laidlomycin], the “% Propionic Acid” value in data set [1] (Table 1, 1.25 μg/ml, 0 μg/ml: 35.4) came to 46.1%; in data set [1] (Table 1, 2.5 μg/ml, 0 μg/ml: 35.4) it was 52.2%; in data set [1] (Table 1, 5 μg/ml, 0 μg/ml: 35.4) it was 49.3%; in data set [1] (Table 1, 10 μg/ml, 0 μg/ml: 35.4) it was 53.9%; in data set [1] (Table 1, .31 μg/ml, 0 μg/ml: 35.4), 43.6%; in data set [1] (Table 1, .62 μg/ml, 0 μg/ml: 35.4) it was 46.4%. The “% Propionic Acid” value in data set [1] (setting [11]) is 39.9%; in data set [1] (setting [12]), 43.7%; in data set [1] (setting [13]), 46.9%; in data set [1] (setting [14]) it was 35.5%. Moreover, the “enhancement of propionic acid production (molar percentage of propionate)” value in data set [1] (setting [19]) is listed as “surprisingly increased potency”. In addition, the activity at 1.25 µg/mL was found to be 13% in data set [2] (setting [15]) and 8% in data set [2] (Bos taurus, 6 h, read-out: Lactic Acid Accumulation (% of Control), Table 2, 1.25 μg/ml, 6 h, 39° C.). The activity at 5 µg/mL in data set [2] (setting [16]) turned out to be 15%; in data set [2] (Bos taurus, 6 h, read-out: Lactic Acid Accumulation (% of Control), Table 2, 5 μg/ml, 6 h, 39° C.), 13%. In addition, in data set [2] (setting [17]), the activity at 20 µg/mL was found to be 19%. The activity at 0.31 µg/mL in data set [2] (setting [18]) was 38%; in data set [2] (Bos taurus, 6 h, read-out: Lactic Acid Accumulation (% of Control), Table 2, .31 μg/ml, 6 h, 39° C.), 71%. The activity at 2.5 µg/mL in data set [2] (Bos taurus, 6 h, read-out: Lactic Acid Accumulation (% of Control), Table 2, 2.5 μg/ml, 6 h, 39° C.) came to 11%. Further, the activity at 10 µg/mL in data set [2] (Bos taurus, 6 h, read-out: Lactic Acid Accumulation (% of Control), Table 2, 10 μg/ml, 6 h, 39° C.) is 13%. Further, in data set [2] (Bos taurus, 6 h, read-out: Lactic Acid Accumulation (% of Control), Table 2, .62 μg/ml, 6 h, 39° C.), the activity at 0.62 µg/mL was found to be 30%. The “inhibition of lactic acid production/accumulation” value in data set [2] (setting [19]) was “surprisingly increased potency”. Besides, in data set [3], the LD50 at 504 h is above 200 mg/kg. Besides, the “No. Deaths/No. Mice” value in the data set with male, Swiss-Webster mice (12.5 mg/kg) is reported as 0/6; in the data set with male, Swiss-Webster mice (25 mg/kg), 0/6; with male, Swiss-Webster mice (50 mg/kg), 0/6; in the data set with male, Swiss-Webster mice (100 mg/kg), 0/6; in the data set with male, Swiss-Webster mice (200 mg/kg), 0/6.
